According to ChEMBL document CHEMBL5543097, “Synthesis and structure-activity relationships of novel 14-membered 2-fluoro ketolides with structural modification at the C11 position” (Eur J Med Chem, 2024):
Values after ≈ are worked out from the molar mass of the structure shown.

Tests used:
Moraxella catarrhalis [1] = test: Antibacterial activity against Moraxella catarrhalis BCA 19-5 assessed as inhibition of bacterial growth incubated for 24 hrs by CLSI based broth microdilution method; type: functional; conditions: Moraxella catarrhalis, BCA 19-5, 24 h, read-out: MIC
Haemophilus influenzae [2] = test: Antibacterial activity against Haemophilus influenzae HIN 19-18 assessed as inhibition of bacterial growth incubated for 20 to 24 hrs by CLSI based broth microdilution method; type: functional; conditions: HIN 19-18, time 20-24 hrs
Haemophilus influenzae [3] = test: Antibacterial activity against Haemophilus influenzae HIN 20-18 assessed as inhibition of bacterial growth incubated for 20 to 24 hrs by CLSI based broth microdilution method; type: functional; conditions: time 20-24 hrs
Haemophilus influenzae [4] = test: Antibacterial activity against Haemophilus influenzae HIN 19-15 assessed as inhibition of bacterial growth incubated for 20 to 24 hrs by CLSI based broth microdilution method; type: functional; conditions: time 20-24 hrs
Moraxella catarrhalis [5] = test: Antibacterial activity against Moraxella catarrhalis BCA 19-31 assessed as inhibition of bacterial growth incubated for 24 hrs by CLSI based broth microdilution method; type: functional; conditions: BCA 19-31, 24 h
[6] = Cytotoxicity against mouse AML12 cells assessed as reduction in cell viability incubated for 48 hrs by MTT assay; type: toxicity, cell-based
Moraxella catarrhalis [7] = test: Antibacterial activity against Moraxella catarrhalis BCA 19-6 assessed as inhibition of bacterial growth incubated for 24 hrs by CLSI based broth microdilution method; type: functional; conditions: Moraxella catarrhalis, BCA 19-6, 24 h, read-out: MIC
[8] = system: Staphylococcus epidermidis; test: Antibacterial activity against erythromycin-resistant Staphylococcus epidermidis 19-9 assessed as inhibition of visible bacterial growth incubated for 18 hrs by broth microdilution method; type: functional
Streptococcus pneumoniae [9] = test: Antibacterial activity against erythromycin-resistant Streptococcus pneumoniae SPN19-8 assessed as inhibition of visible bacterial growth incubated for 18 hrs by broth microdilution method; type: functional
[10] = system: Staphylococcus epidermidis; test: Antibacterial activity against erythromycin-resistant Staphylococcus epidermidis 19-8 assessed as inhibition of visible bacterial growth incubated for 18 hrs by broth microdilution method; type: functional
Streptococcus pneumoniae [11] = test: Antibacterial activity against erythromycin-resistant Streptococcus pneumoniae SPN19-13 assessed as inhibition of visible bacterial growth incubated for 18 hrs by broth microdilution method; type: functional
[12] = system: Staphylococcus epidermidis; test: Antibacterial activity against erythromycin-resistant Staphylococcus epidermidis 19-5 assessed as inhibition of visible bacterial growth incubated for 18 hrs by broth microdilution method; type: functional
Streptococcus agalactiae [13] = test: Antibacterial activity against erythromycin-resistant Streptococcus agalactiae 19-8 assessed as inhibition of visible bacterial growth incubated for 18 hrs by broth microdilution method; type: functional
Streptococcus pyogenes = test: Antibacterial activity against erythromycin-resistant Streptococcus pyogenes ATCC 19615 assessed as inhibition of visible bacterial growth incubated for 18 hrs by broth microdilution method; type: functional
[14] = system: Staphylococcus epidermidis; test: Antibacterial activity against erythromycin-resistant Staphylococcus epidermidis 19-4 assessed as inhibition of visible bacterial growth incubated for 18 hrs by broth microdilution method; type: functional
[15] = system: Staphylococcus epidermidis; test: Antibacterial activity against erythromycin-resistant Staphylococcus epidermidis 19-6 assessed as inhibition of visible bacterial growth incubated for 18 hrs by broth microdilution method; type: functional
[16] = system: Staphylococcus epidermidis; test: Antibacterial activity against erythromycin-resistant Staphylococcus epidermidis 19-11 assessed as inhibition of visible bacterial growth incubated for 18 hrs by broth microdilution method; type: functional
Streptococcus agalactiae [17] = test: Antibacterial activity against erythromycin-resistant Streptococcus agalactiae 19-9 assessed as inhibition of visible bacterial growth incubated for 18 hrs by broth microdilution method; type: functional
Streptococcus pneumoniae [18] = test: Antibacterial activity against erythromycin-resistant Streptococcus pneumoniae SPN19-14 assessed as inhibition of visible bacterial growth incubated for 18 hrs by broth microdilution method; type: functional

SMILES	MIC (Moraxella catarrhalis [1]) [µg/mL]	MIC (Haemophilus influenzae [2]) [µg/mL]	MIC (Haemophilus influenzae [3]) [µg/mL]	MIC (Haemophilus influenzae [4]) [µg/mL]	MIC (Moraxella catarrhalis [5]) [µg/mL]	CC50 at 48 h [6] [µM]	MIC (Moraxella catarrhalis [7]) [µg/mL]	MIC [8] [µg/mL]	MIC (Streptococcus pneumoniae [9]) [µg/mL]	MIC [10] [µg/mL]	MIC (Streptococcus pneumoniae [11]) [µg/mL]	MIC [12] [µg/mL]	MIC (Streptococcus agalactiae [13]) [µg/mL]	MIC (Streptococcus pyogenes) [µg/mL]	MIC [14] [µg/mL]	MIC [15] [µg/mL]	MIC [16] [µg/mL]	MIC (Streptococcus agalactiae [17]) [µg/mL]	MIC (Streptococcus pneumoniae [18]) [µg/mL]
CC[C@H]1OC(=O)[C@@](C)(F)C(=O)[C@H](C)[C@@H](O[C@@H]2O[C@H](C)C[C@H](N(C)C)[C@H]2O)[C@](C)(OC)C[C@@H](C)C(=O)[C@H](C)[C@H]2N(CCCOC(=O)Nc3cc(C)ccc3C)C(=O)O[C@]12C	0.125 (≈ 0.15 µM)	8 (≈ 9.57 µM)	16 (≈ 19.1 µM)	8 (≈ 9.57 µM)	0.125 (≈ 0.15 µM)	33.1	0.125 (≈ 0.15 µM)	–	–	–	–	–	–	–	–	–	–	–	–
CCc1ccc(NC(=O)OCCCN2C(=O)O[C@]3(C)[C@@H](CC)OC(=O)[C@@](C)(F)C(=O)[C@H](C)[C@@H](O[C@@H]4O[C@H](C)C[C@H](N(C)C)[C@H]4O)[C@](C)(OC)C[C@@H](C)C(=O)[C@H](C)[C@@H]23)cc1	–	–	–	–	–	25.6	–	0.125 (≈ 0.15 µM)	0.125 (≈ 0.15 µM)	< 0.03	0.06 (≈ 0.0718 µM)	< 0.03	< 0.03	< 0.03	< 0.03	< 0.03	0.03 (≈ 0.0359 µM)	0.5 (≈ 0.598 µM)	< 0.03
CC[C@H]1OC(=O)[C@H](C)C(=O)[C@H](C)[C@@H](O[C@@H]2O[C@H](C)C[C@H](N(C)C)[C@H]2O)[C@](C)(OC)C[C@@H](C)C(=O)[C@H](C)[C@H]2N(CCCOC(=O)Nc3ccc(C(F)(F)F)cc3)C(=O)O[C@]12C	–	–	–	4 (≈ 4.66 µM)	0.06 (≈ 0.0699 µM)	73.8	–	0.5 (≈ 0.583 µM)	0.125 (≈ 0.146 µM)	0.06 (≈ 0.0699 µM)	0.125 (≈ 0.146 µM)	0.06 (≈ 0.0699 µM)	< 0.03	< 0.03	0.125 (≈ 0.146 µM)	0.25 (≈ 0.291 µM)	0.125 (≈ 0.146 µM)	0.5 (≈ 0.583 µM)	0.125 (≈ 0.146 µM)
CC[C@H]1OC(=O)[C@@](C)(F)C(=O)[C@H](C)[C@@H](O[C@@H]2O[C@H](C)C[C@H](N(C)C)[C@H]2O)[C@](C)(OC)C[C@@H](C)C(=O)[C@H](C)[C@H]2N(CCCOC(=O)Nc3cc(C)oc3C(F)(F)F)C(=O)O[C@]12C	0.5 (≈ 0.568 µM)	4 (≈ 4.55 µM)	> 16	0.5 (≈ 0.568 µM)	0.5 (≈ 0.568 µM)	35.9	0.5 (≈ 0.568 µM)	–	–	–	–	–	–	–	–	–	–	–	–
CC[C@H]1OC(=O)[C@@](C)(F)C(=O)[C@H](C)[C@@H](O[C@@H]2O[C@H](C)C[C@H](N(C)C)[C@H]2O)[C@](C)(OC)C[C@@H](C)C(=O)[C@H](C)[C@H]2N(CCCOC(=O)Nc3cccc(C(F)(F)F)c3)C(=O)O[C@]12C	1 (≈ 1.14 µM)	64 (≈ 73.1 µM)	–	64 (≈ 73.1 µM)	4 (≈ 4.57 µM)	12.4	1 (≈ 1.14 µM)	1 (≈ 1.14 µM)	2 (≈ 2.28 µM)	0.5 (≈ 0.571 µM)	2 (≈ 2.28 µM)	0.5 (≈ 0.571 µM)	< 0.03	< 0.03	0.5 (≈ 0.571 µM)	0.5 (≈ 0.571 µM)	0.25 (≈ 0.285 µM)	8 (≈ 9.13 µM)	2 (≈ 2.28 µM)
CC[C@H]1OC(=O)[C@@](C)(F)C(=O)[C@H](C)[C@@H](O[C@@H]2O[C@H](C)C[C@H](N(C)C)[C@H]2O)[C@](C)(OC)C[C@@H](C)C(=O)[C@H](C)[C@H]2N(CCCOC(=O)Nc3cc(C)cc(C)c3)C(=O)O[C@]12C	1 (≈ 1.2 µM)	16 (≈ 19.1 µM)	–	16 (≈ 19.1 µM)	0.5 (≈ 0.598 µM)	25.5	1 (≈ 1.2 µM)	0.5 (≈ 0.598 µM)	0.5 (≈ 0.598 µM)	0.25 (≈ 0.299 µM)	0.5 (≈ 0.598 µM)	< 0.03	0.06 (≈ 0.0718 µM)	< 0.03	< 0.25	0.5 (≈ 0.598 µM)	0.25 (≈ 0.299 µM)	4 (≈ 4.78 µM)	1 (≈ 1.2 µM)
CC[C@H]1OC(=O)[C@@](C)(F)C(=O)[C@H](C)[C@@H](O[C@@H]2O[C@H](C)C[C@H](N(C)C)[C@H]2O)[C@](C)(OC)C[C@@H](C)C(=O)[C@H](C)[C@H]2N(CCCOC(=O)Nc3ccc(-c4ccccc4)cc3)C(=O)O[C@]12C	–	8 (≈ 9.05 µM)	–	32 (≈ 36.2 µM)	1 (≈ 1.13 µM)	20.7	1 (≈ 1.13 µM)	0.5 (≈ 0.566 µM)	1 (≈ 1.13 µM)	0.25 (≈ 0.283 µM)	1 (≈ 1.13 µM)	< 0.03	< 0.03	< 0.03	0.125 (≈ 0.141 µM)	1 (≈ 1.13 µM)	0.5 (≈ 0.566 µM)	4 (≈ 4.52 µM)	0.125 (≈ 0.141 µM)
